Source: patent US20180028712A1, “SKIN-REGENERATING MATERIAL COMPRISING SYNERGISTIC COMBINATION OF METAL OXIDES” (ARGAMAN TECHNOLOGIES LTD., priority 2015, published 2018)

How the values were obtained:
[1] = system: Human Foreskin Fibroblasts (HFF); conditions: 24 hours following the plate scratching
Protocol: (§1) For the treatments, the saturated solutions were diluted 1:10, 1:100, and 1:500 in the growth medium in a supernatant.
HFF cells were thawed and passaged at least once prior to assay performance.

[2] = system: HFF cell line; assay: Proliferation assay (Stage II), Alamar Blue viability of HFF cells
Protocol: as §1
HFF cells were thawed and passaged at least once prior to assay performance. Exponentially growing culture was collected, centrifuged, counted and seeded in 96-well tissue culture plate at a density of 5000 cells/well.
The plate was incubated overnight at 37° C., humidified 5% CO2/air., to enable cells adherence to the wells.
The next day, the growth medium was replaced with the test item solutions in 5% and 1% FBS and vehicle control solution to achieve the final concentrations as designated in the following plate plan (final volume of 200 μl)
Plates were incubated for 24 hours at 37° C., humidified 5% CO2/air.
Following 24 hours, the medium was replaced with fresh growth medium containing 10% of Alamar Blue.

## [Ag+].[Ag+].[Ag+].[Ag+].[O-2].[O-2].[O-2].[O-2] [TST, tetrasilver tetroxide]
[1]; diluted 1:100, compared to control group
  observation of scratched monolayer (proliferation along the scratch): many proliferation centers along the scratch
[1]; saturated solution diluted 1:10
  observation of scratched monolayer (cytotoxicity): cytotoxic
[2]; HFF cells, 24 hours, summary of Table 1
  cell proliferation / cytotoxicity result in words: cytotoxic
[2]; percent viability on HFF cell line, 24 hours incubation and 4 hours with Alamar Blue, control = 100
  Number of cells (normalized): 85
